According to US7700108B2, “Tumor antigen protein and use thereof” (Dainippon Sumitomo Pharma Co., Ltd., priority 2002, dated 2010):
Where no end group is shown, it is not given here.

Test system: TcOS2000cl-303 (CTL) with 293-EBNA-B55 cells (HLA-B* 5502)
Assay: LDH release assay: reactivity of CTL TcOS2000cl-303 to peptide-pulsed 293-EBNA-B55 cells
Type: cell-based, human
Settings: 293-EBNA-B55 cells pulsed for 1 hour with peptide, co-cultured with TcOS2000cl-303; FIG. 5
Method: The first screening involved the following procedures. A pool of about 100 cDNA clones ([…]) was introduced into 293-EBNA-B55 cells having been plated into a 96-well microplate at 8×10^4 cells/well by lipofection method (Lipofectamine 2000, Invitrogen). Pools of respective cDNA clones used for introduction were stored separately. Twenty-four-hour later, TcOS2000cl-303 cells (8×10^4) were added and cultivation continued for another 24 hours, when the cultured supernatant was recovered. The reactivity of CTL was evaluated by determining LDH released in the supernatant by cytotoxic effects using LDH Cytotoxicity Detection Kit (TAKARA BIO). […] As a result, the reactivity was detected in 20 wells. […] As a result, the reactivity was detected in 4 wells.
Antigen peptide regions that bind to HLA-B* 5502 was identified from various peptides synthesized on the basis of the amino acid sequence (SEQ ID NO: 2) of tumor antigen protein PBF using as an index the reactivity of TcOS2000cl-303. 293-EBNA-B55A cells (8×10^4) were pulsed for 1 hour with a peptide having an amino acid sequence (Cys Thr Ala Cys Arg Trp Lys Ala Cys Gln Arg, SEQ ID NO: 46) corresponding to the amino acid sequence at position […] of SEQ ID NO: 2, co-cultured with TcOS2000cl-303 cells (4×10^4) and the reactivity was assessed by LDH release assay in the same manner as that described in Example 2. […]

For “CTACRWKACQR (cysteine pairing not given here) [SEQ ID NO: 46]”, the “reactivity of TcOS2000cl-303 (LDH release)” value was “reacted to peptide-pulsed 293-EBNA-B55 cells”.
